Laboratory results from patent US20240400572A1, “COMPOUNDS AND METHODS FOR TREATING CANCERS THAT ARE MGMT DEFICIENT REGARDLESS OF MMR STATUS” (Yale University, priority 2021, published 2024).

Columns and labels:
[1] = tested on: LN229 MGMT+ MMR− cells; assay: Anticancer activity towards LN229 human brain glioblastoma cells (nuclei count after 120 hours); format: cell-based; conditions: LN-229, LN229 quad cells, 200 μM to 0.1 uM
Method: (§1) Exemplary compounds were evaluated for activity against LN229 human brain glioblastoma cells. Experimental procedures and results are provided elsewhere herein.
(§2) LN229 quad cells were maintained in Dulbecco's Modified Eagle Medium (DMEM) supplemented with 10% fetal bovine serum. Cells were plated into sterile black with glass bottom 384-well plates (Cellvis) at a concentration of 1,000 cells/well (20 μL total volume) using a MultiDrop (Thermo Fisher). Then, assay plates were centrifuged at 300 rpm for 2 seconds and incubated overnight in a 37° C. 5% CO2 incubator. Compounds were prepared as 100 mM stocks in DMSO and stored protected from light at −20′C until use. Prior to compound addition, the stock solutions of compound were diluted two-fold serially in DMSO from 100 mM down to 0.05 mM in a 384-well Source plate. Vehicle control wells containing DMSO and positive control wells containing 10 mM bortezomib were also added to the Source plate. An aliquot in the amount of 40 nL of compound stock solution or DMSO vehicle was transferred from the source plate to the cell assay plate using an Echo Acoustic dispense (Beckman). Three replicate dilution curves of each compound were run on each assay plate. An aliquot in the amount of 120 nL of a 10 mM bortezomib solution was transferred to the positive control wells resulting in a final concentration of 60 μM. The final concentration of compounds ranged from 200 μM to 0.1 uM (12-point, 2-fold dilution dose response curve), and the final DMSO concentration was 0.2%.
(§3) Assay plates were centrifuged at 500 rpm for 2 seconds and incubated for 120 hours at 37° C. in a humidified 5% CO2 incubator. Following incubation, cells were fixed with 4% paraformaldehyde and stained with DAPI for nuclei visualization. The images were acquired on the InCell 2200 high content imager (GE, now […]), and quantified using InCell Analyzer image analysis software. Z prime factor, signal-to-background and coefficient of variation were calculated for each assays plate using mean and standard deviation values of the negative (vehicle) and positive (bortezomib) control wells to ensure assay robustness. Raw cell count data for test compounds was normalized to percent viability relative to the DMSO vehicle control. Data was plotted in GraphPad Prism using a variable slope 4-parameter fit.

[2] = tested on: LN229 MGMT− MMR+ cells; assay: as above; format: cell-based; conditions: LN-229, LN229 quad cells, 200 μM to 0.1 uM
Method: as §1, §2, §3

[3] = tested on: LN229 MGMT− MMR− cells; assay: as above; format: cell-based; conditions: LN-229, LN229 quad cells, 200 μM to 0.1 uM
Method: as §1, §2, §3

[4] = tested on: LN229 MGMT+ MMR+ cells; assay: as above; format: cell-based; conditions: LN-229, LN229 quad cells, 200 μM to 0.1 uM
Method: as §1, §2, §3

[5] = tested on: O^6-guanine adducts in cellular DNA; conditions: dose of 20 μM; cited from earlier work
[6] = tested on: WT and XPA-deficient MEFs; assay: Short-term cell viability assay in NER isogenic MEFs; format: cell-based, mouse; conditions: WT versus XPA-deficient MEFs, ± MGMT depletion with O6BG
Method: FIGS. ZS5A-ZS5D. […] Columns, mean; error bars, SD; n=2 independent analyses. For (FIG. ZS5A) and (FIG. ZS5C), points, mean; error bars, SD; n=3 technical replicates.
Short-term Cell Viability Assay. Cells were seeded in 96-well plates at 1000 or 2000 cells/well and allowed to adhere at 23° C. for 60 min and then incubated overnight at 37° C. Cells were treated with indicated concentrations of compounds in triplicate for 4-6 days prior to fixation with 3.7% paraformaldehyde and nuclear staining with 1 μg/mL Hoechst 33342 dye. Cells were imaged on a Cytation 3 imaging reader (BioTek) and quantified using CellProfiler software.

[7] = tested on: linearized pUC19 plasmid DNA; assay: Melting temperature assay; format: biochemical; conditions: 100 or 500 μM for 3 h
Method: Melting Temperature Assay. Linearized pUC19 DNA (750 ng), prepared as described above, was incubated with the indicated concentration of either MMS or KL-50 (4a) adjusted in a final volume of 18 μL in 100 mM Tris buffer (pH 7.4) for 3 h. Drug stock concentrations were made in DMSO such that each reaction contained a fixed 5% DMSO concentration. Afterwards, 1 μL each of 20× SYBR Green dye (Invitrogen) and 20× ROX reference dye (Invitrogen) was added and melting temperature analysis was run on a StepOnePlus RT PCR System (Applied Biosciences) to generate melting temperature curves.

[8] = tested on: PD20 cells, FANCD2−/− or +FANCD2; assay: Short-term cell viability assay in FANCD2 model; format: cell-based, human; conditions: PD20 FANCD2−/− versus +FANCD2
Method: FIGS. Z4A-Z4I. KL-50 (4a) activates DNA damage response pathways and cycle arrest in MGMT− cells, independent of MMR, and induces sensitivity in cells deficient in ICL or HR repair. (FIGS. Z4A, Z4B, and Z4C) Phospho-SER139-H2AX (γH2AX) (A), 53BP1 (FIG. Z4B), and phospo-SER33-RPA2 (pRPA) (FIG. Z4C) foci formation quantified by % cells with 10 foci in LN229 MGMT+/−, MMR+/− cells treated with 0.1% DMSO control, 20 μM KL-50 (4a), or 20 μM TMZ (1a) for 48 h. Columns, mean; error bars, SD; n≥5 technical replicates. Additional time course data is presented in FIG. ZS6B to D. (FIG. Z4D) Representative foci images of data in (FIG. Z4A) to (FIG. Z4C). (FIG. Z4E) Percentage of cells in G1, S, and G2 cell cycle phases after treatment as in (A) to (C), measured using integrated nuclear (Hoechst) staining intensity. Columns, mean; error bars, SD; n=3 independent analyses. (FIG. Z4F) Change in percent cells with 1 micronuclei from baseline (DMSO control) after treatment as in (FIG. Z4A) to (FIG. Z4C). Columns, mean; error bars, SD; […] technical replicates; **** p<0.0001; ns, not significant. Additional validation is presented in FIG. ZS9, A and B. (FIG. Z4G) Short-term viability assay curves for KL-50 (4a) in PD20 cells, deficient in FANCD2 (FANCD2−/−) or complemented with FANCD2 (+FANCD2). (FIG. Z4H) Short-term viability assay curves for KL-50 (4a) in PEO4 (BRCA2+) and PEO1 (BRCA2−/−) cells pre-treated with 0.01% DMSO control or 10 μM O^6BG (+O^6BG) for 1 h prior to KL-50 (4a) addition. (FIG. Z4I) Short-term viability assay curves for KL-50 (4a) in DLD1 BRCA2+/− and BRCA2−/− cells pre-treated with 0.01% DMSO control or 10 μM O^6BG (+O^6BG) for 1 h prior to KL-50 (4a) addition. For (FIG. Z4G), (FIG. Z4H), and (FIG. Z4I), points, mean; error bars, SD; n=3 technical replicates.
Short-term Cell Viability Assay. Cells were seeded in 96-well plates at 1000 or 2000 cells/well and allowed to adhere at 23° C. for 60 min and then incubated overnight at 37° C. […] Cells were imaged on a Cytation 3 imaging reader (BioTek) and quantified using CellProfiler software.

CNC(=O)c1ncn2c(=O)n(CCF)nnc12 [Compound I-1, 3-(2-fluoroethyl)-N-methyl-4-oxo-3H,4H-imidazo[4,3-d][1,2,3,5]tetrazine-8-carboxamide]
IC50 [1]: > 80 µM
IC50 [2]: 10 to 20 µM
IC50 [3]: < 10 µM
IC50 [4]: > 80 µM

Cn1nnc2c(C(N)=O)ncn2c1=O [TMZ, temozolomide, reference compound]
O^6MeG (3) adducts per cell [5]: 20,600

NC(=O)c1ncn2c(=O)n(CCF)nnc12 [KL-50, 3-(2-fluoroethyl)-4-oxo-3H,4H-imidazo[4,3-d][1,2,3,5]tetrazine-8-carboxamide]
sensitivity of XPA deficient cells (in words) [6]: absence of additional sensitivity
change in DNA melting temperature (in words) [7]: comparable changes in measured DNA melting temperature
sensitivity of FANCD2-deficient cells (in words) [8]: hypersensitive
